Laboratory results taken from patent US20260034094A1, “COMPOSITIONS AND METHODS FOR INDUCING FERROPTOSIS” (Kojin Therapeutics, Inc., priority 2022, published 2026).

Assays:
[1] = molecular target: human recombinant GCL (Homo sapiens (Human), UniProt P48506); experiment: GCL enzyme profiling assay (ADP-Glo luminescence); format: biochemical; details: human recombinant GCL, ADP-Glo; read-out: GCL IC50
How it was run: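 ADP-Glo luminescence readout; 5 nM enzyme preincubated 1 h at 22 °C with 0.6 mM ATP, then started with 1 mM glutamate and 1.2 mM α-aminobutyrate, stopped after 2 h. Buffer: HEPES pH 7.5, MgCl2, DTT, BSA, 0.2% F-127, 1% DMSO. IC50 from four-parameter logistic fit.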

[2] = test system: RKN cells; experiment: RKN cell profiling assay (cell viability, CellTiter-Glo); format: cell-based; details: cell viability, read-out: Cell Killing EC50
How it was run: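 Cells seeded at 1,000/well in F-12 with 10% FBS, left to adhere 24 h, then compound-treated for 96 h at 0.5% final DMSO. Viability by CellTiter-Glo luminescence; EC50 from four-parameter logistic fit. Ferroptosis rescue runs included 1.5 μM ferrostatin-1 added at seeding.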

Chain of human recombinant GCL (P48506 whole entry): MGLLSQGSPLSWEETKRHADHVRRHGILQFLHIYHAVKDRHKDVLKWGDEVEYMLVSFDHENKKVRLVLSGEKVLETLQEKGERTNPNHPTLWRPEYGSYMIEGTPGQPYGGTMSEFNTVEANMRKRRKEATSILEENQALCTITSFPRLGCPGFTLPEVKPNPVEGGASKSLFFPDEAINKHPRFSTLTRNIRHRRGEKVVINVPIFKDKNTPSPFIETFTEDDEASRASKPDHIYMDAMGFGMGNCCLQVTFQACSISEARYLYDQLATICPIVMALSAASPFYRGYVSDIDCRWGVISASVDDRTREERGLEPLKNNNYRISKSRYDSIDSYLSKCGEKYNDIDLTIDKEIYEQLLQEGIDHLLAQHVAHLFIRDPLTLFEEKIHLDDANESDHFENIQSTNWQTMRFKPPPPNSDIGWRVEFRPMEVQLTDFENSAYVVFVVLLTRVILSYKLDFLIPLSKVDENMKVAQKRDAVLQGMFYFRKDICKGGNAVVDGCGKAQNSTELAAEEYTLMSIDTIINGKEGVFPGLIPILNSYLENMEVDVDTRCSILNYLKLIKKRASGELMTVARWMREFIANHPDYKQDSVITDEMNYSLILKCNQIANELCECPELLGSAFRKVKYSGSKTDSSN

Row | SMILES | IC50 [1] [µM] | EC50 [2] [µM]
1 | N=S(=O)(CC[C@H](N)C(=O)O)CCC(O)(c1ccc(-c2cccc3ccccc23)cc1)C(F)(F)F (some centres unmarked) [Compound 444] | ≤ 20 | < 1000
2 | CC(C)(C)c1nnc(-c2ccc(C(O)(CCS(=N)(=O)CC[C@H](N)C(=O)O)C(F)(F)F)cc2)o1 (some centres unmarked) [Compound 445] | 20 to 2000 | ≥ 1000
3 | N=S(=O)(CC[C@H](N)C(=O)O)CCC(O)(c1ccc(NC(=O)c2ccsc2)cc1)C(F)(F)F (some centres unmarked) [Compound 446] | ≤ 20 | < 1000
4 | Cc1cc(-c2ccc(C(O)(CCS(=N)(=O)CC[C@H](N)C(=O)O)C(F)(F)F)cc2)c(C)o1 (some centres unmarked) [Compound 447] | ≤ 20 | ≥ 1000
5 | Cc1noc(C)c1-c1ccc(C(O)(CCS(=N)(=O)CC[C@H](N)C(=O)O)C(F)(F)F)cc1 (some centres unmarked) [Compound 448] | ≤ 20 | ≥ 1000
6 | N=S(=O)(CC[C@H](N)C(=O)O)CCC(O)(c1ccc(-c2ccc(Cl)cc2Cl)cc1OC(F)(F)F)C(F)(F)F (some centres unmarked) [Compound 449] | ≤ 20 | ≥ 1000
7 | N=S(=O)(CC[C@H](N)C(=O)O)CCC(O)(c1ccc(-c2ccc(Cl)cc2Cl)cc1F)C(F)(F)F (some centres unmarked) [Compound 450] | ≤ 20 | < 1000
8 | CCOc1cccc(-c2ccc(C(O)(CCS(=N)(=O)CC[C@H](N)C(=O)O)C(F)(F)F)cc2)c1 (some centres unmarked) [Compound 451] | ≤ 20 | < 1000
9 | Cc1ccc(-c2ccc(C(O)(CCS(=N)(=O)CC[C@H](N)C(=O)O)C(F)(F)F)cc2C#N)cc1 (some centres unmarked) [Compound 452] | ≤ 20 | ≥ 1000
10 | N=S(=O)(CC[C@H](N)C(=O)O)CCC(O)(c1ccc(-c2ccc(O)c(F)c2)cc1)C(F)(F)F (some centres unmarked) [Compound 453] | ≤ 20 | ≥ 1000
11 | N#Cc1cc(-c2ccc(C(O)(CCS(=N)(=O)CC[C@H](N)C(=O)O)C(F)(F)F)cc2)ccc1O (some centres unmarked) [Compound 454] | ≤ 20 | ≥ 1000
12 | Cc1cc(C(O)(CCS(=N)(=O)CC[C@H](N)C(=O)O)C(F)(F)F)ccc1-c1ccc(O)c(F)c1 (some centres unmarked) [Compound 455] | ≤ 20 | ≥ 1000
13 | CC(C)(C)c1cc(-c2ccc(C(O)(CCS(=N)(=O)CC[C@H](N)C(=O)O)C(F)(F)F)cc2)ccc1O (some centres unmarked) [Compound 456] | ≤ 20 | ≥ 1000
14 | N=S(=O)(CC[C@H](N)C(=O)O)CCC(O)(c1ccc(Cc2ccc(Cl)cc2Cl)cc1)C(F)(F)F (some centres unmarked) [Compound 457] | ≤ 20 | ≥ 1000
15 | N=S(=O)(CC[C@H](N)C(=O)O)CCC(O)(c1ccc(-c2ccc(OC(F)(F)F)cc2O)cc1)C(F)(F)F (some centres unmarked) [Compound 458] | ≤ 20 | < 1000
16 | N=S(=O)(CC[C@H](N)C(=O)O)CCC(O)(c1ccc(-c2ccccc2)cn1)C(F)(F)F (stereo partly drawn) [Compound 459, (2S)-2-amino-4-(4,4,4-trifluoro-3-hydroxy-3-(5-phenylpyridin-2-yl)butylsulfonimidoyl)butanoic acid] | ≤ 20 | < 1000
17 | N[C@@H](CCS(=O)(=O)CCC(O)(c1ccc(-c2ccc(Cl)cc2Cl)cn1)C(F)(F)F)C(=O)O (stereo partly drawn) [Compound 460, (2S)-2-amino-4-[3-[5-(2,4-dichlorophenyl)-2-pyridyl]-4,4,4-trifluoro-3-hydroxy-butyl]sulfonyl-butanoic acid] | ≤ 20 | < 1000
18 | N=S(=O)(CC[C@H](N)C(=O)O)CCC(O)(c1ccc(C2CCCC2)cn1)C(F)(F)F (stereo partly drawn) [Compound 461, (2S)-2-amino-4-(3-(5-cyclopentylpyridin-2-yl)-4,4,4-trifluoro-3-hydroxybutylsulfonimidoyl)butanoic acid] | ≤ 20 | < 1000
19 | N=S(=O)(CC[C@H](N)C(=O)O)CCC(O)(c1ccc(-c2ccc(Cl)cc2Cl)cn1)C(F)(F)F (some centres unmarked) [Compound 463] | ≤ 20 | < 1000
20 | N[C@@H](CCSCCC(O)(c1ncc(-c2ccc(Cl)cc2Cl)cn1)C(F)(F)F)C(=O)O (some centres unmarked) [Compound 469] | 20 to 2000 | ≥ 1000
21 | Cc1cc(F)ccc1-c1cnc(C(O)(CCS(=N)(=O)CC[C@H](N)C(=O)O)C(F)(F)F)nc1 (some centres unmarked) [Compound 473] | 20 to 2000 | < 1000
22 | N=S(=O)(CC[C@H](N)C(=O)O)CCC(O)(c1ccc(C2CC2)cn1)C(F)(F)F (some centres unmarked) [Compound 475] | 20 to 2000 | ≥ 1000
23 | N=S(=O)(CC[C@H](N)C(=O)O)CCC(O)(c1ccc(-c2ccc(F)cc2F)cn1)C(F)(F)F (some centres unmarked) [Compound 477] | ≤ 20 | < 1000

Row | SMILES | IC50 [1] [µM] | EC50 [2] [µM]
24 | Cc1cc(Cl)ccc1-c1ccc(C(O)(CCS(=N)(=O)CC[C@H](N)C(=O)O)C(F)(F)F)nc1 (some centres unmarked) [Compound 478] | ≤ 20 | < 1000
25 | Cc1cc(F)ccc1-c1ccc(C(O)(CCS(=N)(=O)CC[C@H](N)C(=O)O)C(F)(F)F)nc1 (some centres unmarked) [Compound 479] | ≤ 20 | < 1000
26 | N=S(=O)(CC[C@H](N)C(=O)O)CCC(O)(c1ccc(-c2cnco2)cn1)C(F)(F)F (some centres unmarked) [Compound 480] | 20 to 2000 | ≥ 1000
27 | CCCCS(=N)(=O)CC[C@H](N)C(=O)OCC (some centres unmarked) [Compound 482] | 20 to 2000 | ≥ 1000
28 | CCCCS(=N)(=O)CC[C@H](N)C(=O)OC(C)(C)C (some centres unmarked) [Compound 483] | 20 to 2000 | ≥ 1000
29 | CCC(C)(C)OC(=O)[C@@H](N)CCS(=N)(=O)CCCC(F)(F)F (some centres unmarked) [Compound 484] | 20 to 2000 | < 1000
30 | CCCCOC(=O)[C@@H](N)CCS(=N)(=O)CCC(O)(c1ccc(-c2ccc(Cl)cc2Cl)cc1)C(F)(F)F (some centres unmarked) [Compound 485] | 20 to 2000 | < 1000
31 | CCOC(=O)[C@@H](N)CC[S@@](=N)(=O)CC[C@@H](O)C(F)(F)F [Compound 486, ethyl (S)-2-amino-4-((R,3R)-4,4,4-trifluoro-3-hydroxybutylsulfonimidoyl)butanoate] | 20 to 2000 | < 1000
32 | CCOC(=O)[C@@H](N)CC[S@@](=N)(=O)CC[C@@](C)(O)C(F)(F)F [Compound 487, ethyl (S)-2-amino-4-((R,3R)-4,4,4-trifluoro-3-hydroxy-3-methylbutylsulfonimidoyl)butanoate] | 20 to 2000 | < 1000
33 | CCOC(=O)[C@@H](N)CC[S@@](=N)(=O)CC[C@](O)(c1ccccc1)C(F)(F)F [Compound 488, ethyl (S)-2-amino-4-((R,3S)-4,4,4-trifluoro-3-hydroxy-3-phenylbutylsulfonimidoyl)butanoate] | 20 to 2000 | < 1000
34 | CC(C)(C)OC(=O)[C@@H](N)CC[S@@](=N)(=O)CC[C@H](O)C(F)(F)F [Compound 489, tert-butyl (S)-2-amino-4-((R,3S)-4,4,4-trifluoro-3-hydroxybutylsulfonimidoyl)butanoate] | > 2000 | ≥ 1000
35 | CC(C)(C)OC(=O)[C@@H](N)CC[S@](=N)(=O)CC[C@H](O)C(F)(F)F [Compound 490] | > 2000 | ≥ 1000
36 | CC(C)(C)OC(=O)[C@@H](N)CC[S@@](=N)(=O)CC[C@@H](O)C(F)(F)F [Compound 491, tert-butyl (S)-2-amino-4-((R,3R)-4,4,4-trifluoro-3-hydroxybutylsulfonimidoyl)butanoate] | 20 to 2000 | < 1000
37 | CC(C)(C)OC(=O)[C@@H](N)CC[S@](=N)(=O)CC[C@@H](O)C(F)(F)F [Compound 492] | > 2000 | ≥ 1000
38 | N=S(=O)(CC[C@H](N)C(=O)O)CCC(O)(CC(F)(F)F)c1ccc(-c2ccc(Cl)cc2Cl)cc1 (stereo partly drawn) [Compound 494, (2S)-2-amino-4-(3-(2′, 4′-dichloro-[1, 1′-biphenyl]-4-yl)-5,5,5-trifluoro-3-hydroxypentylsulfonimidoyl) butanoic acid] | ≤ 20 | ≥ 1000
39 | N=S(=O)(C/C=C(\CC(F)(F)F)c1ccc(-c2ccc(Cl)cc2Cl)cc1)CC[C@H](N)C(=O)O (stereo partly drawn) [Compound 495, (2S)-2-amino-4-((E)-3-(2′, 4′-dichloro-[1, 1′-biphenyl]-4-yl)-5,5,5-trifluoropent-2-en-1-ylsulfonimidoyl) butanoic acid] | 20 to 2000 | ≥ 1000
40 | N[C@H]1CC[S@@](=O)(CC[C@H](O)C(F)(F)F)=NC1=O [Compound 496, (1R,4S)-4-amino-1-((S)-4,4,4-trifluoro-3-hydroxybutyl)-5,6-dihydro-116,2-thiazin-3 (4H)-one 1-oxide] | 20 to 2000 | < 1000
41 | CC(O)(CCS(=N)(=O)CC[C@H](N)C(=O)O)C1CCC1 (stereo partly drawn) [Compound 497, (2S)-2-amino-4-(3-cyclobutyl-3-hydroxybutylsulfonimidoyl)butanoic acid] | 20 to 2000 | ≥ 1000
42 | N=S(=O)(CC[C@H](N)C(=O)O)CCC1(c2ncc(-c3ccc(Cl)cc3Cl)cn2)CCC1 (stereo partly drawn) [Compound 498, (2S)-2-amino-4-(2-(1-(5-(2,4-dichlorophenyl)pyrimidin-2-yl)cyclobutyl)ethylsulfonimidoyl) butanoic acid] | ≤ 20 | < 1000
43 | N[C@@H](CCS(=O)(=O)NCC(O)(c1ccc(-c2ccc(Cl)cc2Cl)cn1)C(F)(F)F)C(=O)O (stereo partly drawn) [Compound 513, (2S)-2-amino-4-(N-(2-(5-(2,4-dichlorophenyl)pyridin-2-yl)-3,3,3-trifluoro-2-hydroxypropyl)sulfamoyl)butanoic acid] | ≤ 20 | ≥ 1000
44 | N[C@@H](CCS(=O)(=O)NCC(O)(c1ccc(-c2ccccc2)cn1)C(F)(F)F)C(=O)O (stereo partly drawn) [Compound 514, (2S)-2-amino-4-(N-(3,3,3-trifluoro-2-hydroxy-2-(5-phenylpyridin-2-yl)propyl)sulfamoyl)butanoic acid] | 20 to 2000 | ≥ 1000
45 | N=[S@@](=O)(CC[C@H](N)C(=O)O)CCC1(c2ccccn2)CCC1 [compound 388] | 20 to 2000 | < 1000
46 | N=[S@](=O)(CC[C@H](N)C(=O)O)CCC1(c2ccccn2)CCC1 [compound 389] | > 2000 | ≥ 1000
